Data published in US6627749B1 (University of Iowa Research Foundation, priority 1999, dated 2003).
Values after ≈ are worked out from the molar mass of the structure shown.

Experiments:
[1] = Stability of CPT standard solutions (HPLC); assay type: physicochemical
Procedure: The lactone and carboxylate forms of CPT were analyzed by HPLC using a fully-automated Shimadzu LC-10 system, equipped with a fluorescence detector, a Supelco's C-18 discovery column (15 cm×4.6 mm, 5 am Supelco Park, Bellefonte, Pa.) and a guard column. The detector was set at an excitation wavelength of 370 nm and an emission wavelength of 435 nm. The mobile phase consisted of a 73.27 (v/v) mixture of triethylamine-acetate buffer (0.1% triethylamine, adjusted with glacial acetic acid to pH 5.5) and acetonitrile. A flow rate of 1 ml/min and an injection volume of 20 μl were used in the analysis. To avoid carryover between successive injections, the injector was washed thoroughly with methanol. The standard solutions of CPT-lactone and CPT-carboxylate were made by dilution of the CPT stock solution in dimethylsulfoxide (DMSO) with 0.02M HC1 and 0.02M NaOH solutions, respectively. The analysis of the CPT-lactone was performed immediately, whereas that of CPT-carboxylate 30 min. after making the solution. Standard solutions of CPT-lactone and CPT-carboxylate were stable for two weeks at 4° C. and for 24 hours at room temperature.

[2] = In-vitro dissolution of CPT in pH 7.4 phosphate buffer (dialysis bag); assay type: physicochemical; settings: 0.02% Tween 80, 37° C., sink conditions
Procedure: The dissolution of CPT from microspheres and physical mixtures and that of free CPT was evaluated in pH 7.4 phosphate buffer solution (composition: 137 mM NaCl, 3 mM KC1, 8 mM Na2HPO4, 1 mM KH2PO4), containing 0.02% Tween 80 at 37° C. under sink conditions. Briefly, an accurately weighed amount of microspheres was suspended in the buffer medium. The suspension was placed in a dialysis bag (MWCO […], Snakeskin™) and then dialyzed against the buffer solution. 1 ml of the release medium was removed at the predetermined time intervals. To maintain the sink condition, an equal volume of the fresh buffer solution was immediately added to the release medium. The concentrations of both lactone and carboxylate forms of CPT in the release media were determined by HPLC assay.

[3] = tested on: human-derived myeloid THP-1 leukemia cells; experiment: Cytotoxicity, inhibition of DNA synthesis (3H-thymidine); assay type: cell-based; settings: myeloid THP-1 cells
Procedure: (§1) The cytotoxicity of free CPT and OC—(COOH 20%)/CPT microspheres was evaluated against human-derived lymphoid RPMI-8402 (FIG. 7) and myeloid THP-1 leukemia cell lines (see FIG. 6). […] The cells were diluted to 1×10^6 cells/ml in RPMI 1640 media, supplemented with 1% pen/strep, 1% glutamine, and 10% fetal calf serum, and plated in triplicate at the 2×10^5 cells/well in a 96 well plate. CPT or OC—(COOH 20%)/CPT microspheres were then added, at the equal concentrations, to the wells and the cells were incubated for 20 hours at 37° C. and in 5% CO2. Radiolabeled thymidine (0.04 μci/well) was added to each well at 20 hours and 24 hours. The cells were harvested onto a Reeves Angel 934 AH filter using a Brandel automated cell harvester. Radiolabeled DNA was then measured as disintegration per minute (dpm) by scintillation spectroscopy.

[4] = tested on: human-derived lymphoid RPMI-8402 leukemia cells; experiment: as above; assay type: cell-based; settings: lymphoid RPMI-8402 cells
Procedure: as §1

Row | Compound | stability of standard solution ([1]; at 4° C.) | stability of standard solution ([1]; at room temperature) [h] | T-50 (hrs), dissolution of CPT [2] [h] | ED50 [3] [µg/mL] | ED50 [4] [µg/mL]
1 | CCC(O)(C(=O)O)c1cc2n(c(=O)c1CO)Cc1cc3ccccc3nc1-2 (stereo not shown) [CPT-carboxylate] | two weeks | 24 |  |  | 
2 | CC[C@@]1(O)C(=O)OCc2c1cc1n(c2=O)Cc2cc3ccccc3nc2-1 [CPT-lactone] | two weeks | 24 |  |  | 
3 | CC[C@@]1(O)C(=O)OCc2c1cc1n(c2=O)Cc2cc3ccccc3nc2-1 [Free CPT, 20(S)-camptothecin] |  |  | 118.6 | 0.75 (≈ 2.15 µM) | 0.025 (≈ 0.0718 µM)
